Reference: the CATMoS acute toxicity set (Mansouri et al. 2021)
Where a SMILES comes first, the peptide text is derived from it.

Test: GHS categories as the set defines them, by LD50: 1 up to 5, 2 up to 50, 3 up to 300, 4 up to 2000, 5 above 2000 mg/kg
Settings: rat; in vivo; po
In the case of `CCC1COC(Cn2cncn2)(c2cc3cc(Cl)cc(Cl)c3o2)O1` (stereo unspecified), the GHS category is reported as 4.
Work on `C=C(C=CCC(O)C(O)C(O)CC=CC=CC(O)CC1OC(CC(O)C(O)CC2OC(C(O)C(O)CCC(O)C=CC(C)C(O)CC3(O)OC(CC(O)CCCCCCCC45CC(C)CC(C)(O4)C(CC(C)CCCCCC(O)C(O)C(O)C(O)C(O)C4OC(CC(O)C(O)C(C)=CC(O)CC(C)C(O)C(=O)NC=CC(=O)NCCCO)C(O)C(O)C4O)O5)C(O)C(O)C3O)CC(O)C2O)C(O)C(O)C1O)CCC(O)C(O)C(O)C(C)CC1OC(C=CC(O)C(O)CC2CC3CC(O2)C(CCC2OC(CN)CC2O)O3)C(O)C(O)C1O` (stereo unspecified) yielded a GHS category of 1.
`N[C@@H](CC(=O)N1CCn2c(nnc2C(F)(F)F)C1)Cc1cc(F)c(F)cc1F` gave a GHS category of 5.
Work on `O=C(O)C1(O)c2ccccc2-c2ccc(Cl)cc21` (stereo unspecified) yielded a GHS category of 5.
In the case of `O=C(O)Cc1ccc(Cl)cc1Cl`, the GHS category is reported as 5.
In the case of `COc1ccc(Br)cc1`, the GHS category is reported as 4.
`Cc1ccc(N=Nc2c(O)c(C(=O)O)cc3ccccc23)c(S(=O)(=O)O)c1` showed a GHS category of 5.
For `CCCOC(C)OCCc1ccccc1` (stereo unspecified), the GHS category was 5.
In the case of `CCCc1c(OCc2cccn3c(=O)c(-c4nn[nH]n4)cnc23)ccc(C(C)=O)c1O`, the GHS category is reported as 5.
`CC1CC(C)(C)OC(Cn2cncn2)(c2cc3ccccc3o2)O1` (stereo unspecified) gave a GHS category of 4.
Work on `C=C(c1ccccc1)c1ccccc1` yielded a GHS category of 5.
For `CCCCCCC(COC(=O)c1cccnc1)(COC(=O)c1cccnc1)COC(=O)c1cccnc1`, the GHS category was 5.
In the case of `O=c1nc2nc[nH]n2c(COCc2ccccc2)c1Cc1ccc(-c2ccccc2-c2nn[nH]n2)cc1`, the GHS category is reported as 4.
For `CCN(C(=O)CCCSc1nnnn1C)c1ccccc1`, the GHS category was 4.
`CCCCCOC(=O)CC` gave a GHS category of 5.
`CCCCCC1Nc2cc(C(F)(F)F)c(S(N)(=O)=O)cc2S(=O)(=O)N1` (stereo unspecified) gave a GHS category of 5.
Work on `Cc1cc(O)c2c(O)c(-c3ccc4cc(C)cc(O)c4c3O)ccc2c1` yielded a GHS category of 5.
With `O=C(c1ccccc1)c1ccc2[nH]c(=O)oc2c1` the GHS category was 5.
In the case of `CCCCCCC#CC(OC)OC`, the GHS category is reported as 5.
Work on `CCC[C@H](N[C@@H](C)C(=O)N1[C@H](C(=O)O)C[C@@H]2CCCC[C@@H]21)C(=O)OCC` yielded a GHS category of 5.
`CCN(CC)c1ccc(N)cc1` showed a GHS category of 3.
Molecule `COc1cnc(OC)n2nc(NS(=O)(=O)c3c(OCC(F)F)cccc3C(F)(F)F)nc12` has a GHS category of 5.
With `Cc1[nH]c2ccc(O)cc2c1CC(=O)OCC(=O)O` the GHS category was 5.
Work on `C=C1C2CCC(C2)C1(C)C` (stereo unspecified) yielded a GHS category of 5.
`Cn1nnnc1SCCCC(=O)c1cccs1` showed a GHS category of 4.
Molecule `CC(SCC(=O)O)c1ccc2c(c1)Cc1ccccc1-2` (stereo unspecified) has a GHS category of 4.
Work on `C/C=C(\C)C(=O)OC/C=C(\C)CCC=C(C)C` yielded a GHS category of 5.
`O=S(=O)(CCO)CS(=O)(=O)CCO` showed a GHS category of 5.
For `CCCCCCCCCCCCCCCC[Si](OC)(OC)OC`, the GHS category was 5.
Work on `CC(C)(O/N=C(\C(=O)N[C@@H]1C(=O)N2C(C(=O)[O-])=C(C[n+]3ccccc3)CS[C@H]12)c1csc(N)n1)C(=O)O` yielded a GHS category of 5.
For `CC(=O)Oc1ccc(C(=C2CCCCC2)c2ccc(OC(C)=O)cc2)cc1`, the GHS category was 5.
With `CCCCOC(=O)c1ccccc1OC(N)=O` the GHS category was 5.
`CCOC(=O)NC(=S)Nc1ccccc1NC(=S)NC(=O)OCC` gave a GHS category of 5.
`CC(C)[N+](C)(CCC(C(N)=O)(c1ccccc1)c1ccccc1)C(C)C` showed a GHS category of 5.
Work on `CCCCCCCCCCCCCC=O` yielded a GHS category of 5.
Work on `CC1(C)S[C@@H]2[C@H](NC(=O)[C@H](NC(=O)N3CCN(S(C)(=O)=O)C3=O)c3ccccc3)C(=O)N2[C@H]1C(=O)O` yielded a GHS category of 5.
`O=C(O)Cc1nc(-c2ccc(F)cc2)oc1-c1ccsc1` gave a GHS category of 5.
For `C(=C\c1ccccc1)/CN1CCN(C(c2ccccc2)c2ccccc2)CC1`, the GHS category was 5.
`COc1ccc(CCC(C)=O)cc1` showed a GHS category of 5.
`C=CCOc1c(Br)cc(C(C)(C)c2cc(Br)c(OCC=C)c(Br)c2)cc1Br` gave a GHS category of 5.
With `Cc1ccc(-n2nccn2)c(C(=O)O)c1` the GHS category was 5.
In the case of `COc1cc2nc(N3CCC(CN(C)C(=O)c4ccco4)CC3)nc(N)c2cc1OC`, the GHS category is reported as 4.
For `CCCCC(CC)COC(=O)c1ccc(Nc2nc(Nc3ccc(C(=O)NC(C)(C)C)cc3)nc(Nc3ccc(C(=O)OCC(CC)CCCC)cc3)n2)cc1` (stereo unspecified), the GHS category was 5.
For `Cc1c(C)c2c(c(C)c1O)CCC(C)(CCCC(C)CCCC(C)CCCC(C)C)O2` (racemic), the GHS category was 5.
`Cc1cccc(C)c1OP(=O)(Oc1cccc(OP(=O)(Oc2c(C)cccc2C)Oc2c(C)cccc2C)c1)Oc1c(C)cccc1C` showed a GHS category of 5.
`CC(C)(C)c1ccc(C=O)cc1` gave a GHS category of 4.
With `CC(CCO)CCCC(C)(C)O` (stereo unspecified) the GHS category was 5.
With `CCOC(=O)CC#N` the GHS category was 5.
In the case of `O=C(c1ccc(Oc2ccccc2)cc1)c1ccc(C(=O)c2ccc(Oc3ccccc3)cc2)cc1`, the GHS category is reported as 5.
`CC(C)(C)c1ccc(OC(=O)C2CCC(CN=C(N)N)CC2)cc1` (stereo unspecified) gave a GHS category of 2.
For `OCCCCSc1ccc(Cl)cc1`, the GHS category was 4.
In the case of `O=C(NC(=O)C(Cl)(Cl)Cl)NS(=O)(=O)c1ccccc1`, the GHS category is reported as 5.
In the case of `CCC(=O)O[C@H]1[C@H](O[C@@H]2[C@@H](C)[C@H](O[C@H]3C[C@@](C)(OC)[C@@H](O)[C@H](C)O3)[C@@H](C)C(=O)O[C@H](CC)[C@@](C)(O)[C@H](O)[C@@H](C)C(=O)[C@H](C)C[C@@]2(C)O)O[C@H](C)C[C@@H]1N(C)C`, the GHS category is reported as 5.
Work on `O=C1NC(=O)c2ccc3c4ccc5c6c(ccc(c7ccc1c2c73)c64)C(=O)NC5=O` yielded a GHS category of 5.
`O=C1Cc2cccc(F)c2N1` gave a GHS category of 4.
`CCCCCCCCOC=O` showed a GHS category of 5.
In the case of `CCC(C)O[Si](OC(C)CC)(OC(C)CC)OC(C)CC` (stereo unspecified), the GHS category is reported as 5.
For `C=CCCCCCCCCCO`, the GHS category was 5.
`c1ccc2oc(C3(Cn4cncn4)OCCCO3)cc2c1` gave a GHS category of 4.
`NCC[C@H](O)C(=O)N[C@@H]1C[C@H](N)[C@@H](O[C@H]2O[C@H](CN)CC[C@H]2N)[C@H](O)[C@H]1O[C@H]1O[C@H](CO)[C@@H](O)[C@H](N)[C@H]1O` showed a GHS category of 5.
In the case of `O=C(CCCCC(=O)N(CCO)CCO)N(CCO)CCO`, the GHS category is reported as 5.
Work on `CC1OC(OC2CCC(OC3C(O)CC(c4ccc5c(c4O)C(=O)C4=C(C5=O)C5(O)C(=O)CC(C)(OC6CCC(OC7C=CC(=O)C(C)O7)C(C)O6)CC5(O)C=C4)OC3C)OC2C)C=CC1=O` (stereo unspecified) yielded a GHS category of 4.
`CSC(C)=NOC(=O)N(C)SN(C)C(=O)Oc1ccccc1OC(=O)N(C)SN(C)C(=O)ON=C(C)SC` showed a GHS category of 4.
For `C[C@@H]1C[C@@H](C)CC(C)(C)C1`, the GHS category was 5.
With `NCC(=O)N[C@@H](CCC(N)=O)C(=O)O` (H-Gly-Gln-OH) the GHS category was 5.
For `CN1C2CCC1CC(OS(C)(=O)=O)C2` (stereo unspecified), the GHS category was 4.
For `CN1CCN(CC(=O)N2c3ccccc3C(=O)Nc3cccnc32)CC1`, the GHS category was 5.
For `CC[C@H]1C[C@H]2[C@@H]3CCC4=CC(=O)CC[C@@H]4[C@H]3CC[C@]2(C)[C@H]1OC(C)=O`, the GHS category was 5.
Molecule `Cc1ncc(COP(=O)(O)O)c(CN)c1O` has a GHS category of 5.
Work on `CCOC(=O)C1OC1C(=O)NC(CC(C)C)C(=O)NCCC(C)C` (stereo unspecified) yielded a GHS category of 5.
`CCCCCCCC/C=C\CCCCCCCC(=O)OC[C@@H](OC(=O)CCCCCCC/C=C\CCCCCCCC)[C@H]1OC[C@H](O)[C@H]1O` gave a GHS category of 5.
With `c1ccc(Nc2ccc(NC3CCCCC3)cc2)cc1` the GHS category was 5.
With `CNc1ccc(Cl)cc1C(=O)c1ccccc1Cl` the GHS category was 5.
`c1ccc(C2c3ccccc3CCN2c2ccccc2)cc1` (stereo unspecified) showed a GHS category of 4.
`CCOP(=O)(OCC)c1ccccc1` showed a GHS category of 4.
`COC(=O)C(C=O)c1ccccc1` (stereo unspecified) gave a GHS category of 4.
`CC(O)(CC(=O)O)c1ccc(C2CCCCC2)c(Cl)c1` (stereo unspecified) gave a GHS category of 4.
Molecule `Clc1ccc(Cn2ccnc2-c2ccccc2)cc1` has a GHS category of 4.
With `CCCC(=O)Nc1ccc(Cc2ccccn2)c([N+](=O)[O-])c1` the GHS category was 4.
`O=C(NC(=O)c1c(F)cccc1F)Nc1cc(Cl)c(F)c(Cl)c1F` showed a GHS category of 5.
Molecule `COc1ccc(C2NC(=O)C(C)S2)cc1` (stereo unspecified) has a GHS category of 5.
With `CCOC(=O)COc1ccc2c(=O)cc(-c3ccccc3)oc2c1` the GHS category was 5.
In the case of `COc1cc(C)c(/C=C/C(C)=C/C=C/C(C)=C/C(=O)O)c(C)c1C`, the GHS category is reported as 5.
`CCOC(=O)C(Cl)C(=O)OCC` showed a GHS category of 4.
`CCC(=O)OC/C=C(\C)CCC=C(C)C` showed a GHS category of 5.
`CC1(C)CCC(=Cc2ccc(Cl)cc2)C1(O)Cn1cncn1` (stereo unspecified) showed a GHS category of 5.
`CCCC(=O)c1ccc(NC)c(O)c1` showed a GHS category of 5.
In the case of `CCn1ccc(=O)n2nc(-c3cccs3)cc12`, the GHS category is reported as 4.
`CC1NC(=S)C(C(O)O)C(O)C1C` (stereo unspecified) showed a GHS category of 5.
Work on `CS(=O)(=O)c1ccc(F)c(C(=O)O)c1` yielded a GHS category of 5.
With `C[C@@H]1C[C@H]2[C@@H]3CCC4=CC(=O)C=C[C@]4(C)[C@@]3(F)[C@@H](O)C[C@]2(C)[C@@]1(O)C(=O)CO` the GHS category was 5.
`O=S(=O)(O)c1cc(-n2nc3ccc4ccccc4c3n2)ccc1C=Cc1ccccc1` gave a GHS category of 5.
Molecule `CC(C)c1cc(C(C)C)cc(C(C)C)c1` has a GHS category of 5.
`CC1CC(OC(=O)c2ccccc2O)CC(C)(C)C1` (stereo unspecified) showed a GHS category of 5.
`CCCCn1c(C)c(C(=O)NC2CCN(CCc3ccccc3)CC2)c2cc(O)ccc21` gave a GHS category of 5.
With `CSC(C)=NOC(=O)N(C)SN(C)C(=O)Oc1ccc(Sc2ccc(OC(=O)N(C)SN(C)C(=O)ON=C(C)SC)cc2)cc1` the GHS category was 4.
For `O=C(O)c1ccccc1N=Cc1ccccc1`, the GHS category was 4.
`Nc1ncc(Br)cc1O` gave a GHS category of 5.
`COCCOCOCCOC` gave a GHS category of 5.
`CCOCC=C(C)CCC=C(C)C` gave a GHS category of 5.
`O=C(O)CN(CCN(CC(=O)O)CC(=O)O)CCN(CC(=O)O)CC(=O)O` (racemic) showed a GHS category of 5.
With `CC(C)COP(=O)(OCC(C)C)OCC(C)C` the GHS category was 5.
For `Nc1nc2cc(Cl)cc(S(=O)(=O)O)c2o1`, the GHS category was 4.
With `CO[Si](C)(C)CCl` the GHS category was 4.
In the case of `CNC(=O)Oc1cc(C)cc(C)c1C`, the GHS category is reported as 3.
In the case of `CN1C2=CC(=O)C(=NNC(N)=O)C=C2CC1S(=O)(=O)O` (stereo unspecified), the GHS category is reported as 5.
In the case of `CNC(=O)C(=NNc1ccccc1)C(C)=O`, the GHS category is reported as 5.
Work on `CCOC(=O)C(=O)Nc1cc(OCCOCc2ccccc2)nc(C)n1` yielded a GHS category of 4.
In the case of `O=C1NC(=O)C2CC=CCC12` (stereo unspecified), the GHS category is reported as 5.
In the case of `CC(=O)OCCC(C)CCCC(C)C` (stereo unspecified), the GHS category is reported as 5.
In the case of `CNC(=O)N(C)c1nc2ccccc2s1`, the GHS category is reported as 5.
